For orientation: IC50 means the midpoint of a concentration-inhibition curve.

This test concerns IL-1β release upon NLRP3 activation in peripheral blood mononuclear cells (PBMC). The test can be described thus: PBMC IC50 determination assay: inhibition of IL-1β release upon NLRP3 activation. The class given is cell-based. The note with it: PBMC, PBMC primed with LPS 3 h, compound 30 min, stimulated with ATP (5 mM) or nigericin (10 μM) 1 h; IL-1β by ELISA (Protocol A) or HTRF (Protocol B). In short, it runs like this:
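Human PBMC from buffy coats were primed 3 h with LPS (1 μg/mL in Protocol B), given compound for 30 min, then stimulated 1 h with ATP (5 mM) or nigericin (10 μM; Protocol A only). Released IL-1β was quantified by ELISA at 450 nm (Protocol A) or HTRF at […] (Protocol B).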
Background: ELISA stands for enzyme-linked immunosorbent assay.

Take `CC(C)c1nn(CC(=O)Nc2ncccn2)c(=O)c2sc(N)cc12` [Compound 101, 2-[2-Amino-7-oxo-4-(propan-2-yl)-6H,7H-thieno[2,3-d]pyridazin-6-yl]-N-(pyrimidin-2-yl)acetamide]: the IC50 fell in the range of 1000 to 3000 nM. The molecule `CCNc1cc2c(=O)n(CC(=O)Nc3ncccn3)nc(C(C)C)c2o1` [Compound 102, 2-[2-(Ethylamino)-4-oxo-7-(propan-2-yl)-4H,5H-furo[2,3-d]pyridazin-5-yl]-N-(pyrimidin-2-yl)acetamide] gave a half-maximal inhibitory concentration (IC50) of 100 to 1000 nM. For the molecule `Cc1nn(CC(=O)Nc2ccc3nncn3c2)c(=O)c2cc(C3CC3)oc12` [Compound 103, 2-{2-Cyclopropyl-7-methyl-4-oxo-4H,5H-furo[2,3-d]pyridazin-5-yl}-N-{[1,2,4]triazolo[4,3-a]pyridin-6-yl}acetamide], the IC50 was in the range of 1000 to 3000 nM. Regarding `CC(C)c1nn(CC(=O)Nc2ccc3nncn3c2)c(=O)c2cc(C3CC3)oc12` [Compound 104, 2-[2-Cyclopropyl-4-oxo-7-(propan-2-yl)-4H,5H-furo[2,3-d]pyridazin-5-yl]-N-{[1,2,4]triazolo[4,3-a]pyridin-6-yl}acetamide], the IC50 was in the range of 100 to 1000 nM.

In turn, `CC(C)c1nn(CC(=O)Nc2ccc3nncn3n2)c(=O)c2cc(C3CC3)oc12` [Compound 105, 2-[2-Cyclopropyl-4-oxo-7-(propan-2-yl)-4H,5H-furo[2,3-d]pyridazin-5-yl]-N-{[1,2,4]triazolo[4,3-b]pyridazin-6-yl}acetamide] registered an IC50 of 100 to 1000 nM. `Cc1nn(CC(=O)Nc2ccc3nncn3n2)c(=O)c2cc(C3CC3)oc12` [Compound 106, 2-{2-Cyclopropyl-7-methyl-4-oxo-4H,5H-furo[2,3-d]pyridazin-5-yl}-N-{[1,2,4]triazolo[4,3-b]pyridazin-6-yl}acetamide]: the IC50 was in the range of 100 to 1000 nM. Take `CCOc1cc2c(C(C)C)nn(CC(=O)Nc3ncccn3)c(=O)c2s1` [Compound 107, 2-[2-Ethoxy-7-oxo-4-(propan-2-yl)-6H,7H-thieno[2,3-d]pyridazin-6-yl]-N-(pyrimidin-2-yl)acetamide]: the IC50 lay in the range of 1000 to 3000 nM. `COc1cc2c(=O)n(CC(=O)Nc3ncccn3)nc(C(C)C)c2o1` [Compound 108, 2-[2-Methoxy-4-oxo-7-(propan-2-yl)-4H,5H-furo[2,3-d]pyridazin-5-yl]-N-(pyrimidin-2-yl)acetamide] showed an IC50 of 3000 to 10000 nM. The value for `[2H]C([2H])([2H])Nc1cc2c(C(C)C)nn(CC(=O)Nc3ncccn3)c(=O)c2s1` [Compound 109, 2-{2-Trideuteromethylamino-7-oxo-4-(propan-2-yl)-6H,7H-thieno[2,3-d]pyridazin-6-yl}-N-(pyrimidin-2-yl)acetamide] was at most 100 nM. The value for `CCNc1cc2c(C(C)C)nn(C3(C(=O)Nc4ncccn4)CC3)c(=O)c2s1` [Compound 110, 1-[2-(Ethylamino)-7-oxo-4-(propan-2-yl)-6H,7H-thieno[2,3-d]pyridazin-6-yl]-N-(pyrimidin-2-yl)cyclopropane-1-carboxamide] was 3000 to 10000 nM. The value for `CNc1cc2c(=O)n(CC(=O)Nc3ncccn3)nc(C(C)C)c2o1` [Compound 111, 2-[2-(Methylamino)-4-oxo-7-(propan-2-yl)-4H,5H-furo[2,3-d]pyridazin-5-yl]-N-(pyrimidin-2-yl)acetamide] was 100 to 1000 nM; that for `CNc1cc2c(C3CC3)nn(CC(=O)Nc3ncccn3)c(=O)c2s1` [Compound 112, 2-[4-Cyclopropyl-2-(methylamino)-7-oxo-6H,7H-thieno[2,3-d]pyridazin-6-yl]-N-(pyrimidin-2-yl)acetamide] was 100 to 1000 nM.

Molecule `CNc1cc2c(C(C)C)nn(C3(C(=O)Nc4ncccn4)CC3)c(=O)c2s1` [Compound 113, 1-[2-(Methylamino)-7-oxo-4-(propan-2-yl)-6H,7H-thieno[2,3-d]pyridazin-6-yl]-N-(pyrimidin-2-yl)cyclopropane-1-carboxamide] showed an IC50 of 10000 to 50000 nM.

`CCc1nn(CC(=O)Nc2ncccn2)c(=O)c2sc(NC)cc12` [Compound 114, 2-[4-ethyl-2-(methylamino)-7-oxo-6H,7H-thieno[2,3-d]pyridazin-6-yl]-N-(pyrimidin-2-yl)acetamide] gave an IC50 of 100 to 1000 nM. The molecule `CCc1nn(CC(=O)Nc2ncco2)c(=O)c2sc(NC)cc12` [Compound 115, 2-[4-Ethyl-2-(methylamino)-7-oxo-6H,7H-thieno[2,3-d]pyridazin-6-yl]-N-(1,3-oxazol-2-yl)acetamide] yielded an IC50 of 100 to 1000 nM. Regarding `CCc1nn(CC(=O)Nc2ncccn2)c(=O)c2sc(C)cc12` [Compound 116], the IC50 is 1000 to 3000 nM. For `Cc1cc2c(C)nn(CC(=O)Nc3ncccn3)c(=O)c2s1` [Compound 117, 2-{2,4-Dimethyl-7-oxo-6H,7H-thieno[2,3-d]pyridazin-6-yl}-N-(pyrimidin-2-yl)acetamide], the half-inhibitory concentration (IC50) lay within 1000 to 3000 nM. For the molecule `CNc1cc2c(C)nn(CC(=O)Nc3ncccn3)c(=O)c2s1` [Compound 118, 2-[4-methyl-2-(methylamino)-7-oxo-6H,7H-thieno[2,3-d]pyridazin-6-yl]-N-(pyrimidin-2-yl)acetamide], the IC50 was in the range of 1000 to 3000 nM. `CNc1cc2c(C)nn(CC(=O)Nc3ncco3)c(=O)c2s1` [Compound 119, 2-[4-Methyl-2-(methylamino)-7-oxo-6H,7H-thieno[2,3-d]pyridazin-6-yl]-N-(1,3-oxazol-2-yl)acetamide]: the IC50 was in the range of 1000 to 3000 nM.

The molecule `CC(C)c1nn(CC(=O)Nc2ncccn2)c(=O)c2sc(CN)cc12` [Compound 120, 2-[2-(Aminomethyl)-7-oxo-4-(propan-2-yl)-6H,7H-thieno[2,3-d]pyridazin-6-yl]-N-(pyrimidin-2-yl)acetamide] registered a half-maximal inhibitory concentration (IC50) of 10000 to 50000 nM.

(Values after US20250066369A1, “BICYCLIC PHTHALAZIN-1(2H)-ONE DERIVATIVES AND RELATED USES” (NodThera Limited, priority 2022, published 2025).)
